Data from publication PMC5478727, “A Novel Small Molecule GDNF Receptor RET Agonist, BT13, Promotes Neurite Growth from Sensory Neurons in Vitro and Attenuates Experimental Neuropathy in the Rat” (Frontiers in Pharmacology, 2017).

Assays:
[1] = system: TrkA; test: TrkA phosphorylation assay in MG87TrkA cells; format: cell-based; conditions: BT13 10–100 μM, NGF positive control
Description: MG87RET, MG87TrkA, or MG87TrkB were plated on 35 mm tissue culture dishes 1–2 days before the experiment to achieve 90–95% of confluency of the cells at the day of stimulation with tested substances. If necessary, cells were transfected with 4 μg/well of GFRα1-, GFRα3-, or green fluorescent protein (GFP)-expressing plasmid using Lipofectamine 2000 (Invitrogen) for DNA delivery as described by manufacturer. Before the experiment cells were starved in serum-free DMEM containing 15 mM HEPES, pH 7.2 and 1% DMSO for 4 h and stimulated with BT13 or neurotrophic factors. Then cells were washed once with ice-cold PBS containing 1 mM Na3VO4 and 1 mM NaF and lysed on ice in 1 ml per well of RIPA-modified buffer (50 mM Tris-HCl, pH 7.4, 150 mM NaCl, 1 mM EDTA, 1% NP-40, 1% TX-100, 10% glycerol, EDTA-free protease inhibitor cocktail (Roche), 1 mM Na3VO4, 2.5 mg/ml of sodium deoxycholate, 1 mM NaF). Plates were incubated at +4°C on the horizontal shaker for 30 min with vigorous shaking. Afterwards, 80–100 μl aliquot was taken from each well to prepare whole cell lysates. This aliquot was mixed with equal volume of 2x Laemmli loading buffer (4% SDS, 20% glycerol, 10% 2-mercaptoethanol, 0.004% bromphenol blue, 0.125 M Tris HCl, pH 6.8) and boiled for 10 min at 100°C. Remaining cell lysates were used for immunoprecipitation of RET or Trk receptors. […]

[2] = target: T1, adrenergic receptor beta 3 (Homo sapiens, UniProt P13945); test: CEREP Beta 3 (non-selective; antagonist radioligand); format: binding; conditions: BT13 1 μM; Cat. No. 3963; average of duplicate; read-out: Percentage of inhibition/potentiation from control
T1 construct: purchased CEREP (contract assay) Cat# 3963
T1 sequence (P13945 whole entry): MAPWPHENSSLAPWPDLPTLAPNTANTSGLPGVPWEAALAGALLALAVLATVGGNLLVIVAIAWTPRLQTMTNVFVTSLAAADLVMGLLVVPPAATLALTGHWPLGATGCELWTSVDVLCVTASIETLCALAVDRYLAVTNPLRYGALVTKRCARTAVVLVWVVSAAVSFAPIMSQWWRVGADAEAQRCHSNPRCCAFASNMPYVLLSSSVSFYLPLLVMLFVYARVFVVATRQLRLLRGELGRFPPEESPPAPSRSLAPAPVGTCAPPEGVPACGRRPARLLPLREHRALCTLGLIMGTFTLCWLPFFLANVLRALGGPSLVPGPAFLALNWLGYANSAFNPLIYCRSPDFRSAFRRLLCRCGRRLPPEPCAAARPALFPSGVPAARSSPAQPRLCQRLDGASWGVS

[3] = target: T2, serotonin receptor 5-HT2C (Homo sapiens, UniProt P28335); test: CEREP 5-HT2C (h) (agonist radioligand); format: binding; conditions: BT13 1 μM, Cat. No. 1003, average of duplicate, read-out: Percentage of inhibition/potentiation from control
T2 construct: purchased CEREP (contract assay) 0137, 1003
T2 sequence (P28335 33-458): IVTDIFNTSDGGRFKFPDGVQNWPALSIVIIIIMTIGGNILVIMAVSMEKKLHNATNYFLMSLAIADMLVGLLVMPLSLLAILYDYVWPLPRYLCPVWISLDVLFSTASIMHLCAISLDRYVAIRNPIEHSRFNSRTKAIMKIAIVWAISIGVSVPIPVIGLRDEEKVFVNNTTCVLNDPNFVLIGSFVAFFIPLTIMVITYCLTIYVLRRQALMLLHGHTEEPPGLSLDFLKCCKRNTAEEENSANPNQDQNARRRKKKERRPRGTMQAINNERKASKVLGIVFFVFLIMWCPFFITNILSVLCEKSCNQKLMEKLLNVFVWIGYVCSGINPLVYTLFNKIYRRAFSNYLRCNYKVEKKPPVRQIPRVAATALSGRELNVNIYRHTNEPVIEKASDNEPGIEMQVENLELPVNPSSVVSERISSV

[4] = target: T3, histamine receptor H1 (Homo sapiens, UniProt P35367); test: CEREP H1 (h) (antagonist radioligand); format: binding; conditions: BT13 1 μM; Cat. No. 0870; average of duplicate; read-out: Percentage of inhibition/potentiation from control
T3 construct: purchased CEREP (contract assay) 0870
T3 sequence (P35367 whole entry): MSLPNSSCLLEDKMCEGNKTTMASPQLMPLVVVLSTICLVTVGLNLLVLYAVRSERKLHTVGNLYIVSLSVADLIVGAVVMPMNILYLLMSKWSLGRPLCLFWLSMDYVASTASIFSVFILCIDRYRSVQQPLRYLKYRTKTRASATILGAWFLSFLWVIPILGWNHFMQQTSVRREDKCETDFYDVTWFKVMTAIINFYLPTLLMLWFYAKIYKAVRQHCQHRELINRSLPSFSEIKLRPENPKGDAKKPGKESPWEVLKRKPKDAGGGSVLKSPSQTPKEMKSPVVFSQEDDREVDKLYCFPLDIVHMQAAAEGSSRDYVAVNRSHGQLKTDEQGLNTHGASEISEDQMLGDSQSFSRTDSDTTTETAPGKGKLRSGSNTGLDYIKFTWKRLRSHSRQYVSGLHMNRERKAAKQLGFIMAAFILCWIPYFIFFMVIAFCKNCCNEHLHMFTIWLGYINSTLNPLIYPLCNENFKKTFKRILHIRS

[5] = system: adrenergic receptor alpha 2; test: CEREP Alpha 2 (non-selective; antagonist radioligand); format: binding; conditions: BT13 1 μM; Cat. No. 0011; average of duplicate
[6] = target: 5-HT transporter (Homo sapiens, UniProt P31645); test: biochemical; conditions: read-out: Percentage of inhibition/potentiation from control
5-HT transporter, sequence (P31645 whole entry): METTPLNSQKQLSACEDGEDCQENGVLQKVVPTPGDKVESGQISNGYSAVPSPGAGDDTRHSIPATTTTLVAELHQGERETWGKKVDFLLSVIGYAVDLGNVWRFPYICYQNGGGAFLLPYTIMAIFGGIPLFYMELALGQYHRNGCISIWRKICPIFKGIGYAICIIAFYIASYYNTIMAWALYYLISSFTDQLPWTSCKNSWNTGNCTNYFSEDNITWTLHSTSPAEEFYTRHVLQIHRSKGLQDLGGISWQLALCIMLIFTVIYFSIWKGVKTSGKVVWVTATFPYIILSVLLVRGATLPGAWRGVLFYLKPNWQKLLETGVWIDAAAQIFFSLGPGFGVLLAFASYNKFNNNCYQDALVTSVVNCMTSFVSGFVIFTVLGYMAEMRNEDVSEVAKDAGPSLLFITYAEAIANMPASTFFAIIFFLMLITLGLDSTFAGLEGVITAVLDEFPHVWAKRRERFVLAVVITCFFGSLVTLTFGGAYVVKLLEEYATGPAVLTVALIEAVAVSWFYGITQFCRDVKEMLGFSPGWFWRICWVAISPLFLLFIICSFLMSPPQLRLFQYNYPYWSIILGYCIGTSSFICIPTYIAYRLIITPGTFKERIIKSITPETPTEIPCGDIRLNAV

[7] = target: T4, serotonin receptor 5-HT1A (Homo sapiens, UniProt P08908); test: CEREP 5-HT1A (h) (agonist radioligand); format: binding; conditions: BT13 1 μM; Cat. No. 0131; average of duplicate; read-out: Percentage of inhibition/potentiation from control
T4 construct: purchased CEREP (contract assay) 0131
T4 sequence (P08908 whole entry): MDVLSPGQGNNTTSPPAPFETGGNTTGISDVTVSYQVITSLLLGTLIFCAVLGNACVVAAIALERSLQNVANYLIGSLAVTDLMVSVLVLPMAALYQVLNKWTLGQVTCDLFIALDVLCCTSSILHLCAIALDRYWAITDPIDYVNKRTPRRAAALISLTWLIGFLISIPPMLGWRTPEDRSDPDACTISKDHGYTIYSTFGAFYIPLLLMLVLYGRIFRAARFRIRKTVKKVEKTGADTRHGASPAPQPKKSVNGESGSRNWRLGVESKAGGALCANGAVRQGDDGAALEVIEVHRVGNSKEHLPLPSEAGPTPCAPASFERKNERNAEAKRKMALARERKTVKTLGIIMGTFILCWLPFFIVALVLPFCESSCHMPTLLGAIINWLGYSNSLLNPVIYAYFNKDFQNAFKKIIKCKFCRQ

[8] = target: T5, TrkA (Rattus norvegicus, UniProt P35739); test: Luciferase reporter-gene assay, TrkA reporter cells; format: cell-based; conditions: TrkA reporter cell line
T5 construct: expressed in transfected cells; host or cells: MG87 murine fibroblasts (MG87TrkA)
T5 sequence (P35739 33-799): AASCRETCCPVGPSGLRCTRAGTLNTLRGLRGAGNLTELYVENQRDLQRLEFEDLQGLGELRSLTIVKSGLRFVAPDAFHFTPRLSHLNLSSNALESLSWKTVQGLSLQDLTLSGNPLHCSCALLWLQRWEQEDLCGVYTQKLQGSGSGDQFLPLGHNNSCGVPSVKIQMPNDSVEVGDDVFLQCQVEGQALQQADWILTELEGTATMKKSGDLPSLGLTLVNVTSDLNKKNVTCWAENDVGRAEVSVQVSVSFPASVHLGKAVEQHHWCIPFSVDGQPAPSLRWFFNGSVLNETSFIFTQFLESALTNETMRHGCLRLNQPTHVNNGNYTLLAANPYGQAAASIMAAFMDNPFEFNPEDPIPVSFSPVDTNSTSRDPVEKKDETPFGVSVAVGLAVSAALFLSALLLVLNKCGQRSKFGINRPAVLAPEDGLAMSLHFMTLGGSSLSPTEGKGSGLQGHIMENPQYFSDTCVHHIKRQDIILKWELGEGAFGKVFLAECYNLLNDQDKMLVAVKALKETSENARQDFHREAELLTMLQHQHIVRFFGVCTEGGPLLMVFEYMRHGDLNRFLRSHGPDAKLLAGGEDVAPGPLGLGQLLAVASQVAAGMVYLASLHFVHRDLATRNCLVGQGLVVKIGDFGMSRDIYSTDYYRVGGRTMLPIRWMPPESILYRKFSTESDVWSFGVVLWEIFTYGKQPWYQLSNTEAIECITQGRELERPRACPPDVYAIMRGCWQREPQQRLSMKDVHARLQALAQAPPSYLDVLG

[9] = target: neurokinin receptor NK1 (Homo sapiens, UniProt P25103); test: CEREP NK1 (h) (agonist radioligand); format: binding; conditions: BT13 1 μM; Cat. No. 0100; average of duplicate; read-out: Percentage of inhibition/potentiation from control
neurokinin receptor NK1, sequence (P25103 whole entry): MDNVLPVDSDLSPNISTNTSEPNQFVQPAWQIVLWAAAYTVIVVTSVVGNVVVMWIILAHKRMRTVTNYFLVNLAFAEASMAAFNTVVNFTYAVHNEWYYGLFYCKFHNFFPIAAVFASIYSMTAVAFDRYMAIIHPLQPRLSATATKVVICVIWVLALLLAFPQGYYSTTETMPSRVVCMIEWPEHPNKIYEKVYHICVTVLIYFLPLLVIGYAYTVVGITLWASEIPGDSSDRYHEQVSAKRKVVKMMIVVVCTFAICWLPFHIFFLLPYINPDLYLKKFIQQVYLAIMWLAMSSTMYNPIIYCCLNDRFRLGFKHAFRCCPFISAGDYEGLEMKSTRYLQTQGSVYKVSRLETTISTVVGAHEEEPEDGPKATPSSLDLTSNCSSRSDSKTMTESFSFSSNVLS

[10] = system: healthy rats; test: Acute nociception and motor coordination in healthy animals; format: in vivo, rat; conditions: BT13 25 mg/kg s.c.

CCN(CC)S(=O)(=O)c1ccc(OC)c(N2CCN(C(=O)c3ccc(F)cc3C(F)(F)F)CC2)c1 [BT13]
TrkA phosphorylation, Western blotting [1]: did not produce any detectable increase | inhibition at 1 µM [2]: -5% | inhibition at 1 µM [3]: 6% | inhibition at 1 µM [4]: 5% | Percentage of inhibition/potentiation from control [5]: −6% | inhibition at 1 µM [6]: 0% | inhibition at 1 µM [7]: -8% | activation of luciferase reporter [8]: did not activate luciferase | inhibition at 1 µM [9]: -19% | baseline sensitivity to mechanical stimuli (paw pressure test) [10]: no significant effect | baseline sensitivity to thermal stimuli (acetone test) [10]: no significant effect | baseline sensitivity to thermal stimuli (hot plate) [10]: no significant effect | baseline sensitivity to thermal stimuli (tail flick) [10]: no significant effect | motor performance (rotarod test) [10]: no significant effect
